Assay results reported in patent US20060270740A1, “Prostaglandin derivatives” (TAISHO PHARMACEUTICAL CO., LTD. and Fumie SATO, priority 2003, published 2006).
Read-outs that look alike come from different tables or passages of the source.

Columns and labels:
[1] = target: T1, PGD2 receptor (DP receptor) (Homo sapiens, UniProt Q13258); assay: PGD2 receptor (DP receptor) binding test, [3H]PGD2, human platelet membrane fraction; details: 5 nM [3H]PGD2, 4 degree C., 90 minutes, read-out: Inhibition constant Ki
T1 construct: twice centrifuged at 105,000×g for 20 minutes at 4 degree C. to obtain platelet membrane fraction as precipitate; from tissue; host or cells: human platelet membrane fraction from blood of a healthy adult
T1 sequence (Q13258 1-359): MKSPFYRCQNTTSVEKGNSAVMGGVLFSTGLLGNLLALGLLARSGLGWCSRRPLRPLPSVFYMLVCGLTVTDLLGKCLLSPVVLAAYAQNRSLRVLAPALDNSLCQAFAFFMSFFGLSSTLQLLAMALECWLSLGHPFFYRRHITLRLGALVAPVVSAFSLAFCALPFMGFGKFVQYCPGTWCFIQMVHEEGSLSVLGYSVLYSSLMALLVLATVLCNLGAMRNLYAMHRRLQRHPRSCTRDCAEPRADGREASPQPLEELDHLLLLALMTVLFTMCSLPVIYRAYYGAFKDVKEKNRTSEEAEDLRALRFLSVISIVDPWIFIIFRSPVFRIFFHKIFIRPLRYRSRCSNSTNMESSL
Method: The test was conducted in accordance with the method of TsurI et al. (J. Med. Chem., 40, 3504-3507 (1997)).
(1) Preparation of Human Platelet Membrane Fraction
A sample of blood drawn from a healthy adult using a plastic syringe was placed in a plastic test tube containing 3.8% sodium citrate, and after gently mixing by overturning centrifuged at room temperature at 180×g for 20 minutes to obtain platelet-rich plasma (PRP) as supernatant. The PRP was further centrifuged at room temperature at 800×g for 20 minutes to obtain platelet as precipitate. […]
The human platelet membrane fraction (0.1 mg), 5 nM [3H]PGD2, and each compound was added to 200 μl of binding reaction solution (50 mM Tris/HCl (pH 7.4), 1 mM EDTA, 10 mM MgCl2), and reaction was conducted at 4 degree C. for 90 minutes. After reaction, the mixture was filtered under vacuum using a glass fiber filter paper, and after rinsing several times with cold physiological sodium chloride solution, residual radio activity on the filter paper was measured. The quantity of nonspecific binding in the present experiment was calculated as the quantity of radioactivity when a similar experiment was conducted in the presence of 10 μM PGD2, and the quantity of specific binding was given as the value of quantity of total binding minus quantity of nonspecific binding. […]

PGD2 receptor = target: T2, PGD2 receptor (Bos taurus, UniProt A5D7K8); assay: Competitive inhibition activity test to PGD2 receptor, cAMP production in EBTr[NBL-4] cells; format: cell-based, bovine; details: 37 degree C., 15 minutes
T2 construct: EBTr[NBL-4] cells derived from embryonic bovine trachea; endogenous in cells; host or cells: EBTr[NBL-4] cells (embryonic bovine trachea)
T2 sequence (A5D7K8 1-361): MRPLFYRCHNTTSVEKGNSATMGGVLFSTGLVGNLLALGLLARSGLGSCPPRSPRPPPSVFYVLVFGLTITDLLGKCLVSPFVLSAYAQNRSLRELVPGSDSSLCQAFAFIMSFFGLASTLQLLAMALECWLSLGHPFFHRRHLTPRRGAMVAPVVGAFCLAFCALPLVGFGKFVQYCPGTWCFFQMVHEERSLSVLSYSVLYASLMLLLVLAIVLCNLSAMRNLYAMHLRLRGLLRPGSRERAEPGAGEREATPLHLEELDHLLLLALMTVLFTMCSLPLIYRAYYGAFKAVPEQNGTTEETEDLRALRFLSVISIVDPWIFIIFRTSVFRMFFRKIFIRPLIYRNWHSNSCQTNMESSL
Method: EBTr[NBL-4] cells derived from embryonic bovine trachea were seeded on a micro-plate with 96 wells, at 8000 cells/well, and used for the experiment after culturing for 2 days in the presence of MEM culture medium (containing 10% calf cerum). The experiment was conducted in a MEM culture medium containing 500 μM IBMX and 10% calf serum. 100 μl of culture medium containing PGD2 and the test compound was added to initiate the reaction, and after reaction at 37 degree C. for 15 minutes, the culture medium was removed and ice-chilled PBS was added to terminate the reaction. Further, after removal of PBS, 200 μl of cytolytic agent (Lysis reagent 1) in cAMP enzymeImmunoassay system (Amersham) was added and cytolysis was brought about by shaking at room temperature for 10 minutes. The quantity of cAMP in the cytolytic agent was determined in accordance with the method described in the cAMP enzymeImmunoassay system. The inhibition activity of the test compound was calculated with the pA2 value as an indicator using the IC50 value when cAMP production quantity in the presence of 100 nM, 1 μM PGD2 was taken as 100%.

[2] = Competitive inhibition activity IC50, PGD2 (100 nM), PGD2 (100 nM) as printed, read-out: Competitive inhibition activity IC50, PGD1 (100 nM)
[3] = PGD2 (1 μM), read-out: Competitive inhibition activity IC50, PGD2 (1 μM)

| Ki [1] [nM] | IC50 (PGD2 receptor; [2]) [nM] | IC50 (PGD2 receptor; [3]) [nM] | SMILES |
| --- | --- | --- | --- |
| 0.8 | 730 | 1160 | O=C(O)Cc1cccc(CC[C@@H]2[C@@H](C#C[C@@H](O)C3CCCCC3)[C@H](O)C[C@H]2Cl)c1 [Compound 38, 9-Deoxy-9β-chloro-3,4,5,16,17,18,19,20-octanol-2,6-inter-m-phenylene-15-cyclohexyl-13,14-didehydro-PGF1α] |
| 2.3 | 3420 | 5370 | O=C(O)Cc1ccccc1CC[C@@H]1[C@@H](C#C[C@@H](O)C2CCCCC2)[C@H](O)C[C@H]1Cl [Compound 51, 9-Deoxy-9β-chloro-3,4,5, 16, 17, 18, 19,20-octanol-2,6-inter-o-phenylene-15-cyclohexyl-13,14-didehydro-PGF1α] |
